Data from patent publication US20100226888A1, “Ethanol Enhances the Complete Replication of Hepatitis C Virus: the Role of Acetaldehyde” (priority 2009, published 2010).
Like-named read-outs stand apart in the source and are kept apart here.

How the values were obtained:
[1] = test system: JFH1 HCV (genotype 2a); assay type: cell-based, hepatitis C virus; details: for intracellular JFH1 HCV RNA levels: 48 hrs
[2] = test system: JFH1 virus; test: HCV RNA in naive Huh7 or Huh7.5 cells inoculated with JFH1 virus-containing medium; assay type: cell-based, hepatitis C virus
Experimental: (§1) The in vitro transcription, and transfection of HCV RNA, and Huh7 human hepatoma cell culture were performed as previously described (17). For experiments involving stable clones, cells were cultured in medium supplemented with 0.4-0.5 mg/mL G418, and G418 was removed from cell culture medium one day prior to cell treatments, which were performed as described in Results. For the in vitro infectivity assays, 2 ml of the extracellular medium from JFH1 RNA-transfected cells was used to inoculate naive Huh7 or Huh7.5 cells with 3 ml of fresh medium, as described (23, 25). Treatments were initiated 24 hours after infection and the cells were harvested after another 24 or 48 hrs.
The total intracellular RNA was obtained from cells using Trizol (Invitrogen). To obtain extracellular HCV RNA, cell culture medium samples were first treated with RNase A (100 μg/ml) for 30 min at room temperature, then RNA was extracted using Trizol LS and glycogen as a carrier. HCV RNA was quantified by qRT-PCR as described (17, 23). For JFH1, the primer sequences were 5′ […] 3′ (nt 146 to 164; forward, SEQ ID NO.: 1), and 5′ […] 3′ (nt 277 to 295; reverse, SEQ ID NO.: 2), and the sequence of the fluorogenic probe, labeled with 6-FAM and TAMRA (Biosearch Technologies, Inc.), was 5′ […] 3′ (nt 168 to 188, SEQ ID NO.: 3). The primer and probe sequences for qRT-PCR analysis of Con1 RNA's were described previously (17). Standard curves were generated using in vitro-transcribed HCV RNA's. Intracellular HCV RNA levels were normalized by 18 S rRNA or GAPDH mRNA.

[3] = test system: SgJFH1-Luc subgenomic HCV replicon (genotype 2a); assay type: cell-based, hepatitis C virus
Description: (§2) The genotype 2a HCV constructs, pJFH1 (produces infectious virus particles), replicative-null pJFH1-GND, and subgenomic pSgJFH1-Luc (contains a luciferase reporter gene), are described elsewhere (23, 24). Subgenomic HCV replicons are bicistronic constructs that express only the nonstructural proteins of HCV under the control of encephalocarditis virus IRES; neomycin resistance or firefly luciferase gene is under the control of the HCV IRES (15, 22, 24). These replicons support HCV RNA replication but no virus is formed in cell culture. Huh7 cell clones (SgPC2 cells, Clone B) supporting continuous replication of subgenomic HCV replicon of genotype 1b (Con1 sequence) were also used (17, 22).
After various treatments, SgJFH1 Luc RNA-transfected cells were lysed with 1× Reporter Lysis Buffer, and the luciferase activity was determined using Luciferase Reporter Assay Kit (Promega Corp.) (24). Luciferase activities were normalized by total protein content, determined with bicinchoninic acid (BCA) assay kit from Pierce.
To test whether the JFH1 RNA replication was also affected by ethanol, Huh7 cells were transfected with JFH1 SgJFH1-Luc RNA and exposed the cells to ethanol for 48 hours. Then, HCV replication was monitored by measuring the firefly luciferase activity (24).

[4] = test system: Con1 subgenomic HCV replicon (genotype 1b); test: Con1 subgenomic replicon HCV RNA in SgPC2 cells (Northern blot); assay type: cell-based, hepatitis C virus; details: 0.1 to 1% ethanol, 24 hrs
Description: as §2, §1
(§3) Intracellular RNA extraction and northern blots were carried out, as described (16, 17). DNA probes were prepared from nucleotides (“nt.”) 4128-8273 or 358-2816 of JFH1, generated with ScaI and ApaL I, respectively, or nt. 3669 to 6016 of the Con1 subgenomic replicons. Images were quantified by densitometry, using Optiquant Cyclone 4.00 (Perkin Elmer), and data were normalized by glyceraldehyde 3-phosphate dehydrogenase (GAPDH) mRNA content.

[5] = test system: Con1 HCV subgenomic replicon; test: Con1 subgenomic replicon HCV RNA in Clone B cells; assay type: cell-based, hepatitis C virus; details: 24 hrs, response compared with SgPC2 cells
Description: as §2, §3

[6] = test system: HCV RNA replication complex (Con1 strain); details: cells treated with ethanol for 5 hrs
Experimental: (§4) In vitro replication assay was carried out according to the modified method of Ali et al., as previously described (16, 17, 26). Briefly, cytoplasmic lysates were prepared, and the replication was allowed to proceed for 1 hr at 30° C. in the presence of α-^32P-CTP and actinomycin D. Then, RNA products were analyzed on a 1% formaldehyde agarose gel, which was subsequently analyzed, using Optiquant Cyclone 4.00 (Perkin Elmer).
(§5) JFH1-transfected cells were exposed to ethanol for 5 hrs and then, the cytoplasmic lysates, containing the HCV replication complex, were isolated. Then, the in vitro RNA replication assay was performed in the presence of α-^32P-labeled CTP and actinomycin D, as previously described (17). JFH1 GND cell lysates were used as a negative control.

[7] = test system: HCV RNA replication complex (JFH1)
Experimental: as §4, §5

[8] = test system: HCV IRES; details: ethanol, data not shown
Experimental: as §5

[9] = test system: CYP2E1; details: daily 0.2% (v/v) ethanol for 48 hrs, JFH1 cells
Description: Cells were sonicated in Laemmli buffer, and proteins were separated on 7-20% Tris-glycine gel (Invitrogen) or 12.5% SDS-polyacrylamide gel and western blotted, using mouse monoclonal anti-NS5A (Biodesign, Inc.), goat anti-actin, and the corresponding horseradish peroxidase-conjugated secondary antibodies (Santa Cruz Laboratories) with an ECL Plus kit (Amersham Biosciences). Images were obtained and quantified, using 152000R (Kodak).

[10] = test system: NADH/NAD+ ratio; test: NADH/NAD+ enzymatic NADH recycling assay; assay type: cell-based, human
Experimental: NADH and NAD+ levels were determined by enzymatic NADH recycling assay, using the NAD+/NADH Quantification Kit from Biovision, per manufacturers recommendations with an optional filtration step that used Microcon YM-10 (Millipore). […] The data were normalized by total protein content, determined with BCA assay kit from Pierce.

[11] = test system: Huh7 human hepatoma cells; details: data not shown
Experimental: NADH and NAD+ levels were determined by enzymatic NADH recycling assay, using the NAD+/NADH Quantification Kit from Biovision, per manufacturers recommendations with an optional filtration step that used Microcon YM-10 (Millipore). Total ATP content was measured using Somatic Cell ATP Assay Kit from Sigma-Aldrich. The data were normalized by total protein content, determined with BCA assay kit from Pierce.
To examine whether ethanol increased the complete replication of HCV, positive-sense genomic JFH1 RNA was produced by in vitro transcription, using T7 RNA polymerase, and transfected into Huh7 human hepatoma cells. Then, the transfected cells were exposed to 0-1.0% (v/v; 0-172 mM) ethanol once daily with a change of medium each day for 48 hrs. Then, the cells and the cell culture medium were harvested and analyzed for intracellular and RNase A-resistant extracellular HCV RNA's by a combination of Northern blots and qRT-PCR.

[12] = test system: intracellular cholesterol; test: Total intracellular cholesterol content in SgPC2 cells; assay type: cell-based, human; details: 24 h
Experimental: FIG. 7. […] SgPC2 cells were treated for 24 h with (A and B) 0.2% ethanol, 5 μM acetaldehyde, 0.2% isopropyl alcohol, 2 mM acetone, 5 μM acetate±30 min pretreatment with (A) 5 μM lovastatin, 5 μM fluvastatin, (B) 5 μg/ml TOFA, 5 μg/ml cerulenin, or with (C) 2 mM β-mercaptopropionic acid (β-MPA). Then, HCV RNA levels were monitored by Northern blot and quantified by densitometry (n=3). D, SgPC2 cells, treated for 24 h with ethanol, acetaldehyde, acetone, and acetate±lovastatin, were monitored for cholesterol levels (n=3). Lovastatin was activated, as described, before use (29). *, indicates statistically significant difference for indicated sample sizes (p<0.05)

[13] = test system: intracellular GSH; test: Intracellular GSH content in Huh7 cells; assay type: cell-based, human
Description: Hepatic ethanol, particularly CYP2E1-mediated, metabolism is known to generate ROS (31). […] First, to examine the effects of endogenously generated ROS, L-buthionine S,R-sulfoximine (BSO) was used. BSO depletes glutathione (GSH), a major endogenous antioxidant, by inhibiting its de novo synthesis and therefore, would amplify the effects of endogenous ROS, generated during normal cellular metabolism and in response to HCV (5). BSO decreases intracellular GSH content by approximately 80±12% in Huh7 cells (P<0.05).

## CCO [ethanol]
[1]; 0.2% (v/v) ethanol once daily
  intracellular JFH1 HCV RNA levels: 237±40 % of untreated controls
[1]; 0.5% (v/v) ethanol once daily
  intracellular JFH1 HCV RNA levels: 305±61 % of untreated controls
[1]; ethanol treatment 48 hrs, RNase A-resistant RNA in medium
  extracellular HCV RNA (virus secretion): significantly elevated
[2]; FIG. 5, also data not shown
  HCV replication in RIG-1-defective Huh7.5 cells: increase
[2]; ethanol treatment 48 hrs
  HCV RNA in Huh7 cells infected with cell culture-generated JFH1 virion: increased
[3]
  luciferase activity (JFH1 RNA genome replication): increased
[4]
  genotype 1b HCV RNA: significant increases
[5]
  HCV RNA in Clone B cells: responded similarly
[6]
  in vitro replication rate of Con1 strain: accelerated
[7]; cells exposed to ethanol for 5 hrs
  rate of HCV RNA replication in vitro: significantly increased
[7]; cells exposed to ethanol for ½, 1, or 3 hrs, data not shown
  rate of HCV RNA replication in vitro: no significant increase
[8]
  HCV IRES activity: did not increase
[9]
  CYP2E1 expression: enhanced
[10]; SgPC2 cells, 3 h, 0.2% ethanol, 5 μM acetaldehyde, 5 μM acetate, 0.2% isopropyl alcohol, 2 mM acetone, 25 mM tert-butanol
  NADH/NAD+ ratio: increases
[10]; ethanol, within 3 hrs
  increase of NADH/NAD+ ratio: 76.2±6.1%
[11]
  overall ATP levels: not significantly perturbed
[11]; ethanol concentrations used, cell morphology and cellular ATP content
  cytotoxicity: did not induce any cytotoxicity
[12]
  total intracellular cholesterol content: increased

## CCCCS(=N)(=O)CCC(N)C(=O)O [BSO, L-buthionine S,R-sulfoximine]
[1]; BSO, 24 hrs
  extracellular JFH1 RNA levels: significantly decreased
  intracellular JFH1 RNA levels: significantly decreased
[3]; BSO alone or with 0.25 mU/mL GO + glucose, 24 hr
  subgenomic JFH1 RNA replication: suppressed
[13]
  decrease of intracellular GSH content: approximately 80±12%
